According to the NIST ThermoML archive (doi:10.1021/je700362q):
Numbers after ± are expanded uncertainties.

Legend:
[1] = 298.15 K; 101.33 kPa; Liquid; Vibrating tube method
[2] = refractive index (Na D-line) (dimensionless); conditions: 298.15 K; 101.33 kPa; Liquid; Standard Abbe refractometry

SMILES | mass density [1] [kg/m3] | refractive index [2]
CCCCCCCCn1cc[n+](C)c1.O=S(=O)([N-]S(=O)(=O)C(F)(F)F)C(F)(F)F | 1320.76 ± 12 | 1.43331 ± 0.0012
CCCCCCCC[n+]1ccn(C)c1.F[B-](F)(F)F [1-methyl-3-octylimidazolium tetrafluoroborate] | 1104.42 ± 8.5 | 1.43329 ± 0.0012
CC1CCCCC1 [methylcyclohexane] | 764.97 ± 0.31 | 1.42048 ± 0.00075
c1ccsc1 [thiophene] | 1058.5 ± 0.15 | 1.52581 ± 0.00073
